In US20260262643A1, “HERBICIDAL BENZOXAZINES” (FMC CORPORATION, priority 2022, published 2026):

How the values were obtained:
horseweed = experiment: Test C postemergence; type: in vivo, Erigeron canadensis; details: 10 days, 0 to 100 scale (0 no effect, 100 complete control)
Method in brief: (§1)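 Pre: seeds in loam/sand, directed soil spray. Post: 1–2 leaf plants, 2–10 cm. Cmpd in non-phytotoxic solvent + surfactant. Greenhouse 10 d; visual rating vs untreated, 0 = none, 100 = complete control.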

blackgrass [1] = experiment: Test C postemergence; type: in vivo, Alopecurus myosuroides; details: 10 days, 0 to 100 scale (0 no effect, 100 complete control)
Method in brief: as §1

sedge, umbrella = experiment: Test D flooded paddy test; type: in vivo, Cyperus difformis; details: 250 g ai/ha, applied to paddy water, visual rating after 13 to 14 days, scale 0 to 100 (0 no effect, 100 complete control)
Method in brief: (§2)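 Post-flood water application at the 2-leaf stage; 3 cm flood depth kept constant; visual control rating 0–100 after 13–14 days greenhouse growth.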

wheat [2] = experiment: Test C preemergence; type: in vivo, Triticum aestivum
Method in brief: as §1

oat, wild [3] = experiment: Test C preemergence; type: in vivo, Avena fatua
Method in brief: as §1

pigweed, palmer [4] = experiment: Test C postemergence; type: in vivo, Amaranthus palmeri; details: 10 days, 0 to 100 scale (0 no effect, 100 complete control)
Method in brief: as §1

corn [5] = experiment: Test C postemergence; type: in vivo, Zea mays; details: 10 days, 0 to 100 scale (0 no effect, 100 complete control)
Method in brief: as §1

blackgrass [6] = experiment: Test C preemergence; type: in vivo, Alopecurus myosuroides
Method in brief: as §1

ragweed [7] = experiment: Test C postemergence; type: in vivo, Ambrosia artemisiifolia; details: 10 days, 0 to 100 scale (0 no effect, 100 complete control)
Method in brief: as §1

corn [8] = experiment: Test C preemergence; type: in vivo, Zea mays; details: 500 g ai/ha, preemergence; 0 to 100 scale (0 no effect, 100 complete control)
Method in brief: as §1

wheat [9] = experiment: Test C postemergence; type: in vivo, Triticum aestivum; details: 10 days, 0 to 100 scale (0 no effect, 100 complete control)
Method in brief: as §1

ryegrass, Italian [10] = experiment: Test C postemergence; type: in vivo, Lolium multiflorum; details: 10 days, 0 to 100 scale (0 no effect, 100 complete control)
Method in brief: as §1

barnyardgrass [11] = experiment: Test C preemergence; type: in vivo, Echinochloa crusgalli
Method in brief: as §1

soybean [12] = experiment: Test C postemergence; type: in vivo, Glycine max; details: 10 days, 0 to 100 scale (0 no effect, 100 complete control)
Method in brief: as §1

galium = experiment: Test C postemergence; type: in vivo, Galium aparine; details: 10 days, 0 to 100 scale (0 no effect, 100 complete control)
Method in brief: as §1

kochia [13] = experiment: Test C postemergence; type: in vivo, Bassia scoparia; details: 10 days, 0 to 100 scale (0 no effect, 100 complete control)
Method in brief: as §1

pigweed, palmer [14] = experiment: Test C preemergence; type: in vivo, Amaranthus palmeri
Method in brief: as §1

ragweed [15] = experiment: Test C preemergence; type: in vivo, Ambrosia artemisiifolia
Method in brief: as §1

foxtail, giant [16] = experiment: Test C preemergence; type: in vivo, Setaria faberi
Method in brief: as §1

ryegrass, Italian [17] = experiment: Test C preemergence; type: in vivo, Lolium multiflorum
Method in brief: as §1

foxtail, giant [18] = experiment: Test C postemergence; type: in vivo, Setaria faberi; details: 10 days, 0 to 100 scale (0 no effect, 100 complete control)
Method in brief: as §1

barnyardgrass [19] = experiment: Test C postemergence; type: in vivo, Echinochloa crusgalli; details: 10 days, 0 to 100 scale (0 no effect, 100 complete control)
Method in brief: as §1

rice = experiment: Test D flooded paddy test; type: in vivo, Oryza sativa; details: 250 g ai/ha, applied to paddy water, visual rating after 13 to 14 days, scale 0 to 100 (0 no effect, 100 complete control)
Method in brief: as §2

soybean [20] = experiment: Test C preemergence; type: in vivo, Glycine max
Method in brief: as §1

kochia [21] = experiment: Test C preemergence; type: in vivo, Bassia scoparia
Method in brief: as §1

ducksalad = experiment: Test D flooded paddy test; type: in vivo, Heteranthera limosa; details: 250 g ai/ha, applied to paddy water, visual rating after 13 to 14 days, scale 0 to 100 (0 no effect, 100 complete control)
Method in brief: as §2

barnyardgrass [22] = experiment: Test D flooded paddy test; type: in vivo, Echinochloa crus-galli; details: 250 g ai/ha, applied to paddy water, visual rating after 13 to 14 days, scale 0 to 100 (0 no effect, 100 complete control)
Method in brief: as §2

oat, wild [23] = experiment: Test C postemergence; type: in vivo, Avena fatua; details: 10 days, 0 to 100 scale (0 no effect, 100 complete control)
Method in brief: as §1

[24] = 500 g ai/ha, preemergence, 0 to 100 scale (0 no effect, 100 complete control)
[25] = Preemergence, 125 g ai/ha, 0 to 100 scale, 0 no effect, 100 complete control

Q: What does the source list for `Cc1ncn(-c2cccc(C(=O)N3C[C@H](C)Oc4c(Cl)cccc43)c2)n1` [Compound 326]?
A: Plant response rating, Horseweed (horseweed; 500 g ai/ha, postemergence): 50; Plant response rating, Horseweed (horseweed; Postemergence, 125 g ai/ha): 0; Plant response rating, Blackgrass (blackgrass [1]; 500 g ai/ha, postemergence): 80; Plant response rating, Blackgrass (blackgrass [1]; Postemergence, 125 g ai/ha): 80; Plant response rating, Sedge, Umbrella (Flood) (sedge, umbrella): 95; Wheat plant response rating (wheat [2]; [24]): 80; Plant response rating, Wheat (wheat [2]; [25]): 20; Oat, Wild plant response rating (oat, wild [3]; [24]): 80; Plant response rating, Oat, Wild (oat, wild [3]; [25]): 30; Plant response rating, Pigweed, Palmer (pigweed, palmer [4]; 500 g ai/ha, postemergence): 60; Plant response rating, Pigweed, Palmer (pigweed, palmer [4]; Postemergence, 125 g ai/ha): 20; Plant response rating, Corn (corn [5]; 500 g ai/ha, postemergence): 80; Plant response rating, Corn (corn [5]; Postemergence, 125 g ai/ha): 10; Blackgrass plant response rating (blackgrass [6]; [24]): 90; Plant response rating, Blackgrass (blackgrass [6]; [25]): 80; Plant response rating, Ragweed (ragweed [7]; 500 g ai/ha, postemergence): 60; Plant response rating, Ragweed (ragweed [7]; Postemergence, 125 g ai/ha): 10; Corn plant response rating (corn [8]): 40; Plant response rating, Wheat (wheat [9]; 500 g ai/ha, postemergence): 40; Plant response rating, Wheat (wheat [9]; Postemergence, 125 g ai/ha): 20; Plant response rating, Ryegrass, Italian (ryegrass, Italian [10]; 500 g ai/ha, postemergence): 80; Plant response rating, Ryegrass, Italian (ryegrass, Italian [10]; Postemergence, 125 g ai/ha): 40; Barnyardgrass plant response rating (barnyardgrass [11]; [24]): 90; Plant response rating, Barnyardgrass (barnyardgrass [11]; [25]): 60; Plant response rating, Soybean (soybean [12]; 500 g ai/ha, postemergence): 100; Plant response rating, Soybean (soybean [12]; Postemergence, 125 g ai/ha): 100; Plant response rating, Galium (galium; 500 g ai/ha, postemergence): 100; Plant response rating, Galium (galium; Postemergence, 125 g ai/ha): 100; Plant response rating, Kochia (kochia [13]; 500 g ai/ha, postemergence): 80; Plant response rating, Kochia (kochia [13]; Postemergence, 125 g ai/ha): 80; Pigweed, Palmer plant response rating (pigweed, palmer [14]; [24]): 100; Plant response rating, Pigweed, Palmer (pigweed, palmer [14]; [25]): 60; Ragweed plant response rating (ragweed [15]; [24]): 0; Plant response rating, Ragweed (ragweed [15]; [25]): 0; Foxtail, Giant plant response rating (foxtail, giant [16]; [24]): 100; Plant response rating, Foxtail, Giant (foxtail, giant [16]; [25]): 100; Ryegrass, Italian plant response rating (ryegrass, Italian [17]; [24]): 100; Plant response rating, Ryegrass, Italian (ryegrass, Italian [17]; [25]): 90; Plant response rating, Foxtail, Giant (foxtail, giant [18]; 500 g ai/ha, postemergence): 90; Plant response rating, Foxtail, Giant (foxtail, giant [18]; Postemergence, 125 g ai/ha): 70; Plant response rating, Barnyardgrass (barnyardgrass [19]; 500 g ai/ha, postemergence): 80; Plant response rating, Barnyardgrass (barnyardgrass [19]; Postemergence, 125 g ai/ha): 30; Plant response rating, Rice (Flood) (rice): 0; Soybean plant response rating (soybean [20]; [24]): 80; Plant response rating, Soybean (soybean [20]; [25]): 70; Kochia plant response rating (kochia [21]; [24]): 90; Plant response rating, Kochia (kochia [21]; [25]): 80; Plant response rating, Ducksalad (Flood) (ducksalad): 80; Plant response rating, Barnyardgrass (Flood) (barnyardgrass [22]): 15; Plant response rating, Oat, Wild (oat, wild [23]; 500 g ai/ha, postemergence): 50; Plant response rating, Oat, Wild (oat, wild [23]; Postemergence, 125 g ai/ha): 20
